Measured values: patent publication US9840501B2, “Morpholin-pyridine derivatives” (Hoffmann-La Roche Inc., priority 2014, dated 2017)

How the values were obtained:
mouse TAAR1 = mouse TAAR1 (Mus musculus (Mouse), UniProt Q923Y8); test: Radioligand binding assay on mouse TAAR1; conditions: mouse TAAR1, membranes of stably transfected HEK-293 cells; first value of the pair; read-out: Ki (μM) mouse/rat: mouse
Experimental: (§1) For the construction of expression plasmids the coding sequences of human, rat and mouse TAAR 1 were amplified from genomic DNA essentially as described by Lindemann et al.. The Expand High Fidelity PCR System (Roche Diagnostics) was used with 1.5 mM Mg^2+ and purified PCR products were cloned into pCR2.1-TOPO cloning vector (Invitrogen) following the instructions of the manufacturer. PCR products were subcloned into the pIRESneo2 vector (BD Clontech, Palo Alto, Calif.), and expression vectors were sequence verified before introduction in cell lines.
(§2) For the generation of stably transfected cell lines HEK293 cells were transfected with the pIRESneo2 expression plasmids containing the TAAR coding sequences (described above) with Lipofectamine 2000 (Invitrogen) according to the instructions of the manufacturer, and 24 hrs post transfection the culture medium was supplemented with 1 mg/ml G418 (Sigma, Buchs, Switzerland). After a culture period of about 10 d clones were isolated, expanded and tested for responsiveness to trace amines (all compounds purchased from Sigma) with the cAMP Biotrak Enzyme immunoassay (EIA) System (Amersham) following the non-acetylation EIA procedure provided by the manufacturer.
Radioligand Binding Assay on Mouse TAAR1
(§3) Membrane Preparation and Radioligand Binding.
(§4) Cells were released from culture flasks using trypsin/EDTA, harvested, washed twice with ice-cold PBS (without Ca^2+ and Mg^2+), pelleted at 1,000 rpm for 5 min at 4° C., frozen and stored at −80° C. Frozen pellets were suspended in 20 ml HEPES-NaOH (20 mM, pH 7.4) containing 10 mM EDTA and homogenized with a Polytron (PT 6000, Kinematica) at 14′000 rpm for 20 s. The homogenate was centrifuged at 48,000×g for 30 min at 4° C. Subsequently, the supernatant was removed and discarded, and the pellet resuspended in 20 ml HEPES-NaOH (20 mM, pH 7.4) containing 0.1 mM EDTA using the Polytron (20 s at 14′000 rpm). This procedure was repeated and the final pellet resuspended in HEPES-NaOH containing 0.1 mM EDTA and homogenized using the Polytron. Typically, aliquots of 2 ml membrane portions were stored at −80° C. With each new membrane batch the dissociation constant (Kd) was determined via a saturation curve. […] Nonspecific binding was defined as the amount of ^3[H]—(S)-4-[(ethyl-phenyl-amino)-methyl]-4,5-dihydro-oxazol-2-ylamine bound in the presence of 10 μM unlabeled ligand. All compounds were tested at a broad range of concentrations (10 pM to 10 μM) in duplicates. […] The 96 deep well plates were incubated for 1 hr at 4° C. Incubations were terminated by rapid filtration through Unifilter-96 plates (Packard Instrument Company) and glass filters GF/C (Perkin Elmer) presoaked for 1 hr in polyethylenimine (0.3%) and washed 3 times with 1 ml of cold binding buffer. After addition of 45 μl of Microscint 40 (PerkinElmer) the Unifilter-96 plate was sealed and after 1 hr the radioactivity counted using a TopCount Microplate Scintillation Counter (Packard Instrument Company).

rat TAAR1 = rat TAAR1 (Rattus norvegicus (Rat), UniProt Q923Y9); test: Radioligand binding assay on rat TAAR1; conditions: rat TAAR1, membranes of stably transfected HEK-293 cells; second value of the pair; read-out: Ki (μM) mouse/rat: rat
Chain of rat TAAR1 (Q923Y9 whole entry): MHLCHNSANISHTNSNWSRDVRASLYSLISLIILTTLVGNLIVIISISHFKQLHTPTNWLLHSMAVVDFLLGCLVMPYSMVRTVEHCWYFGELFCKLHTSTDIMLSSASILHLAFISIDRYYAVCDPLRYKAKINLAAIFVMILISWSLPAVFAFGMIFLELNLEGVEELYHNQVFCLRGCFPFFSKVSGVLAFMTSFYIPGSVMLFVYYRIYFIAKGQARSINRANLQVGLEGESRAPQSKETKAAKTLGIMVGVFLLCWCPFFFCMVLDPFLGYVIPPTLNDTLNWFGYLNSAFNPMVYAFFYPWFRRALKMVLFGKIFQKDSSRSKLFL
Experimental: as §1, §2
Radioligand Binding Assay on Rat TAAR1
as §3
as §4, with “1′000” for “1,000”, “48′000×g” for “48,000×g”

Chain of mouse TAAR1 (Q923Y8 whole entry): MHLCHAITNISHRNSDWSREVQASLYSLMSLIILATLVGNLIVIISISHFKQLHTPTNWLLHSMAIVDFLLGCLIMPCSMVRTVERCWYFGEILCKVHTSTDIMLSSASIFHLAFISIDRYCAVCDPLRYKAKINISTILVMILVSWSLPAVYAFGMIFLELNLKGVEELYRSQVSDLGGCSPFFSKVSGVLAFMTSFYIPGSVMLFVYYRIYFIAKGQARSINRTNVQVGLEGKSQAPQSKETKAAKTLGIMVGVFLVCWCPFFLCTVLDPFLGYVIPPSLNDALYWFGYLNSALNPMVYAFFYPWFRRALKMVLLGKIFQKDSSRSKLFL

Row | Structure (SMILES) | Ki (mouse TAAR1) | Ki (rat TAAR1)
1 | Clc1ccc(Nc2ccc(C3CNCCO3)nc2)cc1 (racemic) [Example 1, (RS)—N-(4-Chlorophenyl)-6-morpholin-2-yl-pyridin-3-amine] | 0.0017 µM | 0.071 µM
2 | CCOc1ccc(Nc2ccc(C3CNCCO3)nc2)cc1 (racemic) [Example 3, (RS)—N-(4-Ethoxyphenyl)-6-morpholin-2-yl-pyridin-3-amine] | 0.0048 µM | 0.374 µM
3 | O=C(Nc1ccc(C2CNCCO2)nc1)c1ccc(Cl)cc1 (racemic) [Example 7, (RS)-4-Chloro-N-(6-morpholin-2-yl-3-pyridyl)benzamide] | 0.0038 µM | 0.0745 µM
4 | O=C(Nc1ccc(F)cc1)Nc1ccc(C2CNCCO2)nc1 (racemic) [Example 9, (RS)-1-(4-Fluorophenyl)-3-(6-morpholin-2-yl-3-pyridyl)urea] | 0.0071 µM | 0.0106 µM
5 | O=C(Nc1ccc(C(F)(F)F)cc1)Nc1ccc(C2CNCCO2)nc1 (racemic) [Example 10, (RS)-1-(6-Morpholin-2-yl-3-pyridyl)-3-[4-(trifluoromethyl)phenyl]urea] | 0.0042 µM | 0.0029 µM
6 | O=C(Nc1ccc(C2CNCCO2)nc1)c1cccc(Cl)c1 (racemic) [Example 12, (RS)-3-Chloro-N-(6-morpholin-2-yl-3-pyridyl)benzamide] |  | 0.0889 µM
7 | FC(F)(F)c1nccc(Nc2ccc(C3CNCCO3)nc2)n1 (racemic) [Example 17, (RS)—N-(6-Morpholin-2-yl-3-pyridyl)-2-(trifluoromethyl)pyrimidin-4-amine] | 0.0382 µM | 0.466 µM
8 | FC(F)(F)c1ccc(Nc2cnc(C3CNCCO3)nc2)cc1 (racemic) [Example 71, (RS)-2-Morpholin-2-yl-N-[4-(trifluoromethyl)phenyl]pyrimidin-5-amine] | 0.0072 µM | 0.195 µM
9 | O=C(Nc1cnc(C2CNCCO2)nc1)c1ccc(Cl)cc1 (racemic) [Example 72, (RS)-4-Chloro-N-(2-morpholin-2-ylpyrimidin-5-yl)benzamide] | 0.0058 µM | 4.93 µM
10 | CCOc1n[nH]c(C(=O)Nc2ccc(C3CNCCO3)nc2)c1Cl (racemic) [Example 74, (RS)-4-Chloro-3-ethoxy-N-(6-morpholin-2-yl-3-pyridyl)-1H-pyrazole-5-carboxamide] |  | 0.066 µM
11 | CCCc1n[nH]c(C(=O)Nc2cnc(C3CNCCO3)c(Cl)c2)c1Cl (racemic) [Example 108, (RS)-4-Chloro-N-(5-chloro-6-morpholin-2-yl-3-pyridyl)-3-propyl-1H-pyrazole-5-carboxamide] | 0.0241 µM | 
12 | O=C(Nc1ccc([C@H]2CNCCO2)nc1)c1cccc(Cl)c1 [Example 52, 3-Chloro-N-[6-[(2R)-morpholin-2-yl]-3-pyridyl]benzamide] |  | 0.0922 µM
13 | O=C(Nc1ccc([C@H]2CNCCO2)nc1)c1ccnc(C(F)(F)F)c1 [Example 54, N-[6-[(2R)-Morpholin-2-yl]-3-pyridyl]-2-(trifluoromethyl)pyridine-4-carboxamide] |  | 0.283 µM
14 | CCOc1n[nH]c(C(=O)Nc2ccc([C@H]3CNCCO3)nc2)c1Cl [Example 100, 4-Chloro-3-ethoxy-N-[6-[(2R)-morpholin-2-yl]-3-pyridyl]-1H-pyrazole-5-carboxamide] |  | 0.123 µM
15 | O=C(Nc1ccc([C@H]2CNCCO2)nc1)c1[nH]nc(OCC(F)(F)F)c1Cl [Example 101, 4-Chloro-N-[6-[(2R)-morpholin-2-yl]-3-pyridyl]-3-(2,2,2-trifluoroethoxy)-1H-pyrazole-5-carboxamide] |  | 0.0225 µM
16 | O=C(Nc1ccc([C@@H]2CNCCO2)nc1)c1[nH]nc(OCC(F)(F)F)c1Cl [Example 105, 4-Chloro-N-[6-[(2S)-morpholin-2-yl]-3-pyridyl]-3-(2,2,2-trifluoroethoxy)-1H-pyrazole-5-carboxamide] |  | 0.0176 µM
17 | CCOc1n[nH]c(C(=O)Nc2ccc([C@@H]3CNCCO3)nc2)c1Cl [Example 106, 4-Chloro-3-ethoxy-N-[6-[(2S)-morpholin-2-yl]-3-pyridyl]-1H-pyrazole-5-carboxamide] |  | 0.137 µM

More lines, now with the values ahead:

Row | Ki (mouse TAAR1) | Ki (rat TAAR1) | Structure (SMILES)
18 | 0.0018 µM | 0.0437 µM | Brc1ccc(Nc2ccc(C3CNCCO3)nc2)cc1 (racemic) [Example 2, (RS)—N-(4-Bromophenyl)-6-morpholin-2-yl-pyridin-3-amine]
19 | 0.0065 µM | 0.372 µM | Fc1ccc(Nc2ccc(C3CNCCO3)nc2)cc1 (racemic) [Example 5, (RS)—N-(4-Fluorophenyl)-6-morpholin-2-yl-pyridin-3-amine]
20 | 0.0038 µM | 0.0047 µM | O=C(Nc1ccc(Cl)cc1)Nc1ccc(C2CNCCO2)nc1 (racemic) [Example 11, (RS)-1-(4-Chlorophenyl)-3-(6-morpholin-2-yl-3-pyridyl)urea]
21 | 0.0124 µM | 0.328 µM | CCOc1ccc(C(=O)Nc2ccc(C3CNCCO3)nc2)cc1 (racemic) [Example 13, (RS)-4-Ethoxy-N-(6-morpholin-2-yl-3-pyridyl)benzamide]
22 | 0.0084 µM | 0.917 µM | O=C(Nc1ccc(C2CNCCO2)nc1)c1ccc(F)cc1 (racemic) [Example 14, (RS)-4-Fluoro-N-(6-morpholin-2-yl-3-pyridyl)benzamide]
23 |  | 0.145 µM | O=C(Nc1ccc(C2CNCCO2)nc1)c1ccnc(C(F)(F)F)c1 (racemic) [Example 16, (RS)—N-(6-Morpholin-2-yl-3-pyridyl)-2-(trifluoromethyl)pyridine-4-carboxamide]
24 | 0.0186 µM | 1.45 µM | Clc1ccc(Nc2cnc(C3CNCCO3)nc2)cc1 (racemic) [Example 70, (RS)—N-(4-Chlorophenyl)-2-morpholin-2-yl-pyrimidin-5-amine]
25 |  | 0.0133 µM | O=C(Nc1ccc(C2CNCCO2)nc1)c1[nH]nc(OCC(F)(F)F)c1Cl (racemic) [Example 75, (RS)-4-Chloro-N-(6-morpholin-2-yl-3-pyridyl)-3-(2,2,2-trifluoroethoxy)-1H-pyrazole-5-carboxamide]
26 |  | 0.122 µM | FC(F)(F)c1ccc(Nc2cnc(C3CNCCO3)c(Cl)c2)nc1 (racemic) [Example 103, (RS)-5-Chloro-6-morpholin-2-yl-N-[5-(trifluoromethyl)-2-pyridyl]pyridin-3-amine]
27 |  | 1.1 µM | Fc1cc(Nc2ccc(Cl)cn2)cnc1C1CNCCO1 (racemic) [Example 110, (RS)—N-(5-Chloro-2-pyridyl)-5-fluoro-6-morpholin-2-yl-pyridin-3-amine]
28 |  | 0.0338 µM | O=C(Nc1ccc([C@@H]2CNCCO2)nc1)c1cccc(Cl)c1 [Example 32, 3-Chloro-N-[6-[(2S)-morpholin-2-yl]-3-pyridyl]benzamide]
29 |  | 0.147 µM | O=C(Nc1ccc([C@@H]2CNCCO2)nc1)c1ccnc(C(F)(F)F)c1 [Example 34, N-[6-[(2S)-Morpholin-2-yl]-3-pyridyl]-2-(trifluoromethyl)pyridine-4-carboxamide]
